# Assay results: US8178658B2 (Dow AgroSciences, LLC, priority 2008, dated 2012)
# Like-named read-outs stand apart in the source and are kept apart here.
# How the values were obtained:
# [1] = test system: beet armyworm (BAW; Spodoptera exigua: Lepidoptera); assay: 96-well microtiter plate-based high throughput (HTS) diet bioassay on beet armyworm (BAW HTS); format: in vivo; settings: for pest or weed control at 12 µg/well, 12 µg/well: Spodoptera exigua, 144 h, read-out: BAW HTS
# Outline: (§1)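 In the HTS format, eggs were placed on diet surface-treated with 12 μg compound per well, held dark at 29° C, and scored for mortality at 6 d (mean of six replicates). The tray format used three to five second instar larvae on diet treated at 50 μg/cm^2, 25° C, 14:10 light-dark, six days, averaged over eight wells.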
# [2] = test system: beet armyworm (BAW; Spodoptera exigua: Lepidoptera); assay: 128-well diet tray assay on beet armyworm (BAW 50); format: in vivo; settings: for pest or weed control at 50 µg/cm2, 50 µg/cm2: Spodoptera exigua, 144 h, read-out: BAW 50 ug/cm2
# Outline: as §1
# [3] = 96-well HTS diet assay, BAW eggs, 12 μg test compound per well, mortality at 6 d post-treatment, mortality class
# [4] = 96-well microtiter plate HTS diet assay, 12 μg test compound per well, BAW eggs, mortality at 6 d post-treatment, mortality class
# [5] = 128-well diet tray assay, 50 μg/cm^2 of test compound on diet, second instar BAW larvae, mortality class
# [6] = 128-well diet tray assay, second instar BAW larvae, 50 μg/cm^2 of test compound on diet, mortality class
Structure (SMILES),"BAW HTS [1, 3]","BAW HTS [1, 4]","BAW 50 ug/cm2 [2, 5]","pest or weed control at 12 µg/well, 12 µg/well [1, 3] [%]","pest or weed control at 50 µg/cm2, 50 µg/cm2 [2, 6] [%]","pest or weed control at 12 µg/well, 12 µg/well [1] [%]","pest or weed control at 50 µg/cm2, 50 µg/cm2 [2] [%]"
COC1C(C)OC(ON=C(C)c2cccc(-c3cn(-c4ccc(OC(F)(F)F)cc4)cn3)c2)C(OC)C1OC (stereo not shown) [Compound 166],B (either (1) the compound was tested and less than 50 percent mortality was observed or (2) the compound was not tested),B (either (1) the compound was tested and less than 50 percent mortality was observed or (2) the compound was not tested),A (the compound was tested and at least 50 percent mortality was observed),–,–,–,–
COC1C(C)OC(ON=C(C)c2ccc(Cl)c(-c3cn(-c4ccc(OC(F)(F)F)cc4)cn3)c2)C(OC)C1OC (stereo not shown) [Compound 167],B (either (1) the compound was tested and less than 50 percent mortality was observed or (2) the compound was not tested),B (either (1) the compound was tested and less than 50 percent mortality was observed or (2) the compound was not tested),A (the compound was tested and at least 50 percent mortality was observed),–,–,–,–
COC1C(C)OC(ON=C(C)c2ccc(F)c(-c3cn(-c4ccc(OC(F)(F)F)cc4)cn3)c2)C(OC)C1OC (stereo not shown) [Compound 168],A (the compound was tested and at least 50 percent mortality was observed),A (the compound was tested and at least 50 percent mortality was observed),A (the compound was tested and at least 50 percent mortality was observed),–,–,–,–
"CCO[C@@H]1[C@@H](OC)[C@H](C)O[C@@H](O/N=C2\CCc3cc(-c4ncn(-c5ccc(OC(F)(F)F)cc5)n4)ccc32)[C@@H]1OC [Compound 170, 5-[1-(4-trifluoromethoxyphenyl)-1H-[1,2,4]triazol-3-yl]-indan-1-one O-((2S,3R,4R,5S,6S)-4-ethoxy-3,5-dimethoxy-6-methyl-tetrahydropyran-2-yl)-oxime]",–,B (either (1) the compound was tested and less than 50 percent mortality was observed or (2) the compound was not tested),A (the compound was tested and at least 50 percent mortality was observed),< 50,> 50,–,–
"CO[C@@H]1[C@@H](OC)[C@H](C)O[C@@H](ONC(=O)c2ccc(-c3cn(-c4ccc(OC(F)(F)F)cc4)cn3)cc2)[C@@H]1OC [Compound 171, 4-[1-(4-trifluoromethoxyphenyl)-1H-imidazol-4-yl]-N-((2S,3R,4R,5S,6S)-3,4,5-trimethoxy-6-methyl-tetrahydropyran-2-yloxy)-benzamide]",–,A (the compound was tested and at least 50 percent mortality was observed),A (the compound was tested and at least 50 percent mortality was observed),> 50,> 50,–,–
CO[C@@H]1[C@@H](OC)[C@H](C)O[C@@H](OC(=O)Nc2ccc(C3=NN(c4cccc(Cl)c4)CC3)cc2)[C@@H]1OC [Compound 172],B (either (1) the compound was tested and less than 50 percent mortality was observed or (2) the compound was not tested),B (either (1) the compound was tested and less than 50 percent mortality was observed or (2) the compound was not tested),A (the compound was tested and at least 50 percent mortality was observed),–,–,–,–
CO[C@@H]1[C@@H](OC)[C@H](C)O[C@@H](OC(=O)Nc2ccc(-c3cn(-c4ccc(OC(F)(F)F)cc4)cn3)cc2)[C@@H]1OC [Compound 173],A (the compound was tested and at least 50 percent mortality was observed),A (the compound was tested and at least 50 percent mortality was observed),A (the compound was tested and at least 50 percent mortality was observed),–,–,–,–
CO[C@@H]1[C@@H](OC)[C@H](C)O[C@H](OC(=O)Nc2ccc(-c3cn(-c4ccc(OC(F)(F)F)cc4)cn3)cc2)[C@@H]1OC [Compound 174],A (the compound was tested and at least 50 percent mortality was observed),A (the compound was tested and at least 50 percent mortality was observed),A (the compound was tested and at least 50 percent mortality was observed),–,–,–,–
CCCCO[C@@H]1[C@@H](OC)[C@H](C)O[C@@H](OC(=O)Nc2ccc(-c3cn(-c4ccc(OC(F)(F)F)cc4)cn3)cc2)[C@@H]1OC [Compound 175],A (the compound was tested and at least 50 percent mortality was observed),A (the compound was tested and at least 50 percent mortality was observed),A (the compound was tested and at least 50 percent mortality was observed),–,–,–,–
CO[C@@H]1[C@@H](OC)[C@H](C)O[C@@H](OC(=S)Nc2ccc(-c3cn(-c4ccc(OC(F)(F)F)cc4)cn3)cc2)[C@@H]1OC [Compound 176],–,B (either (1) the compound was tested and less than 50 percent mortality was observed or (2) the compound was not tested),A (the compound was tested and at least 50 percent mortality was observed),–,–,< 50,> 50
CCO[C@@H]1[C@@H](OC)[C@H](C)O[C@@H](SC(=O)Nc2ccc(-c3cn(-c4ccc(OC(F)(F)F)cc4)cn3)cc2)[C@@H]1OC [Compound 177],–,A (the compound was tested and at least 50 percent mortality was observed),B (either (1) the compound was tested and less than 50 percent mortality was observed or (2) the compound was not tested),–,–,> 50,< 50
CCO[C@@H]1[C@@H](OC)[C@H](C)O[C@@H](OC(=O)Nc2ccc(C3=NN(c4ccc(OC(F)(F)F)cc4)CC3)cc2)[C@@H]1OC [Compound 178],B (either (1) the compound was tested and less than 50 percent mortality was observed or (2) the compound was not tested),B (either (1) the compound was tested and less than 50 percent mortality was observed or (2) the compound was not tested),A (the compound was tested and at least 50 percent mortality was observed),–,–,–,–
CCO[C@@H]1[C@@H](OC)[C@H](C)O[C@@H](OC(=O)Nc2ccc(C3=NN(c4ccc(OC(F)(F)C(F)(F)F)cc4)CC3)cc2)[C@@H]1OC [Compound 179],B (either (1) the compound was tested and less than 50 percent mortality was observed or (2) the compound was not tested),B (either (1) the compound was tested and less than 50 percent mortality was observed or (2) the compound was not tested),A (the compound was tested and at least 50 percent mortality was observed),–,–,–,–
CCO[C@@H]1[C@@H](OC)[C@H](C)O[C@@H](OC(=O)Nc2ccc(C3=NOC(c4ccc(C(F)(F)F)cc4)C3)cc2)[C@@H]1OC (stereo partly shown) [Compound 181],A (the compound was tested and at least 50 percent mortality was observed),A (the compound was tested and at least 50 percent mortality was observed),A (the compound was tested and at least 50 percent mortality was observed),–,–,–,–
CCO[C@@H]1[C@@H](OC)[C@H](C)O[C@H](OC(=O)Nc2ccc(C3=NOC(c4ccc(C(F)(F)F)cc4)C3)cc2)[C@@H]1OC (stereo partly shown) [Compound 182],B (either (1) the compound was tested and less than 50 percent mortality was observed or (2) the compound was not tested),B (either (1) the compound was tested and less than 50 percent mortality was observed or (2) the compound was not tested),B (either (1) the compound was tested and less than 50 percent mortality was observed or (2) the compound was not tested),–,–,–,–
CCO[C@@H]1[C@@H](OC)[C@H](C)O[C@@H](OC(=O)Nc2ccc(C3CC(c4ccc(OC(F)(F)F)cc4)=NO3)cc2)[C@@H]1OC (stereo partly shown) [Compound 183],A (the compound was tested and at least 50 percent mortality was observed),A (the compound was tested and at least 50 percent mortality was observed),A (the compound was tested and at least 50 percent mortality was observed),–,–,–,–
CCO[C@@H]1[C@@H](OC)[C@H](C)O[C@H](OC(=O)Nc2ccc(C3CC(c4ccc(OC(F)(F)F)cc4)=NO3)cc2)[C@@H]1OC (stereo partly shown) [Compound 184],B (either (1) the compound was tested and less than 50 percent mortality was observed or (2) the compound was not tested),B (either (1) the compound was tested and less than 50 percent mortality was observed or (2) the compound was not tested),B (either (1) the compound was tested and less than 50 percent mortality was observed or (2) the compound was not tested),–,–,–,–
CCO[C@@H]1[C@@H](OC)[C@H](C)O[C@@H](OC(=O)Nc2ccc(C3=NCC(c4ccc(OC(F)(F)F)cc4)O3)cc2)[C@@H]1OC (stereo partly shown) [Compound 185],B (either (1) the compound was tested and less than 50 percent mortality was observed or (2) the compound was not tested),B (either (1) the compound was tested and less than 50 percent mortality was observed or (2) the compound was not tested),B (either (1) the compound was tested and less than 50 percent mortality was observed or (2) the compound was not tested),–,–,–,–
CCO[C@@H]1[C@@H](OC)[C@H](C)O[C@@H](OC(=O)Nc2ccc(C3COC(c4ccc(OC(F)(F)F)cc4)=N3)cc2)[C@@H]1OC (stereo partly shown) [Compound 186],B (either (1) the compound was tested and less than 50 percent mortality was observed or (2) the compound was not tested),B (either (1) the compound was tested and less than 50 percent mortality was observed or (2) the compound was not tested),A (the compound was tested and at least 50 percent mortality was observed),–,–,–,–
